Measurements reported in patent US20220331303A1, “USE OF AN OREXIN 2 RECEPTOR AGONIST FOR THE TREATMENT OF EXCESSIVE SLEEPINESS” (Takeda Pharmaceutical Company Limited, priority 2019, published 2022).

Test system: sleep-deprived healthy volunteers
Test: Karolinska Sleepiness Scale (KSS) in sleep-deprived healthy volunteers
Format: in vivo, human
Experimental: During the day before dosing on Day 1, participants were administered the KSS at scheduled timepoints. A practice MWT session was performed on Day 1 treatment period 1 (only once during the entire study) to familiarize subjects with the procedures. Study drug was administered in the clinic in the evening on Day 1 of each treatment period. Subjects underwent the MWT and KSS at specified timepoints after the start of the infusion. Subjects were required to stay awake between the MWT tests. Following completion of the IV infusion on Day 2, subjects underwent an additional MWT test. When the final MWT test and cognitive testing were completed, subjects were allowed to sleep (recovery sleep) for approximately 6 hours. PSG recording was collected during this time. Subjects were discharged from the unit after completion on Day 2 with continuing actigraphy upon discharge (to begin on Day −6 before the next treatment period). The interval between each subsequent treatment period was at least 7 days to ensure that the subject's circadian rhythm had returned to a normal cycle. Subject's vital signs, including BP, were monitored during the dosing and testing period. Blood samples for determination of Compound A plasma concentrations were collected at specified timepoints on Days 1 and 2 of each treatment period. Subjects completed the Columbia-Suicide Severity Rating Scale (C-SSRS) during screening, before study drug administration, and before discharge on Day 2 of each treatment period.
Secondary endpoints: • PK parameters calculated from plasma concentrations of Compound A. • Scores for sleepiness on the Karolinska Sleepiness Scale (KSS).
The secondary efficacy endpoint was sleepiness/alertness as assessed by KSS at 14, 10, 6, and 2 hours predose (approximately between 7:45 AM to 7:45 PM); 2, 2.75, 4.75, 6.75, and 8.75 hours post infusion start (approximately between mid-night to 7 AM in the morning); and at 1.75 hours post infusion end. A higher value indicates more sleepiness, a lower value indicates more alertness. Prior to infusion, there were no statistically significant differences at any time point of observation in KSS score for Compound A 44 and 112 mg treatments when compared to placebo. […] On the average, for modafinil and Compound A 44 and 112 mg, there were about 1.6 to 3.7 points increase in the KSS postdose/the infusion start, relative to that prior to dosing during the daytime. However, for placebo, the increase in the average KSS is 4.9.

[1] = Compound A 44 mg, 1.75 HOURS POST INFUSION END
[2] = Compound A 44 mg, 2 HOURS PREDOSE
[3] = Compound A 44 mg, 2.75 HOURS POST INFUSION START
[4] = Compound A 44 mg, 4.75 HOURS POST INFUSION START
[5] = Compound A 44 mg, 6 HOURS PREDOSE
[6] = Compound A 44 mg, 6.75 HOURS POST INFUSION START
[7] = Compound A 44 mg, 8.75 HOURS POST INFUSION START
[8] = Compound A 44 mg, 10 HOURS PREDOSE
[9] = Compound A 44 mg, 14 HOURS PREDOSE
[10] = Compound A 112 mg, 1.75 HOURS POST INFUSION END
[11] = Compound A 112 mg, 2 HOURS PREDOSE
[12] = Compound A 112 mg, 2.75 HOURS POST INFUSION START
[13] = Compound A 112 mg, 4.75 HOURS POST INFUSION START
[14] = Compound A 112 mg, 6 HOURS PREDOSE
[15] = Compound A 112 mg, 6.75 HOURS POST INFUSION START

COC(=O)N1CCC[C@H](NS(C)(=O)=O)[C@@H]1CO[C@H]1CC[C@@H](c2ccccc2)CC1 [Compound A, methyl (2R,3S)-3-((methylsulfonyl)amino)-2-(((cis-4-phenylcyclohexyl)oxy)methyl)piperidine-1-carboxylate]
Difference between average KSS score post and prior to infusion start, LS Mean (SE) (Compound A 44 mg): 3.68 (0.332) | KSS Max [1]: 9 | KSS Mean (SD) [1]: 8.4 (0.86) | KSS Median [1]: 9.0 | KSS Min [1]: 6 | KSS Max [2]: 9 | KSS Mean (SD) [2]: 4.0 (2.30) | KSS Median [2]: 3.5 | KSS Min [2]: 1 | KSS Max [3]: 8 | KSS Mean (SD) [3]: 4.8 (1.92) | KSS Median [3]: 4.5 | KSS Min [3]: 1 | KSS Max [4]: 9 | KSS Mean (SD) [4]: 6.4 (2.12) | KSS Median [4]: 6.5 | KSS Min [4]: 2 | KSS Max [5]: 7 | KSS Mean (SD) [5]: 2.8 (1.59) | KSS Median [5]: 2.5 | KSS Min [5]: 1 | KSS Max [6]: 9 | KSS Mean (SD) [6]: 7.8 (0.94) | KSS Median [6]: 8.0 | KSS Min [6]: 6 | KSS Max [7]: 9 | KSS Mean (SD) [7]: 8.1 (1.00) | KSS Median [7]: 8.0 | KSS Min [7]: 5 | KSS Max [8]: 7 | KSS Mean (SD) [8]: 2.8 (1.40) | KSS Median [8]: 3.0 | KSS Min [8]: 1 | KSS Max [9]: 6 | KSS Mean (SD) [9]: 2.8 (1.15) | KSS Median [9]: 3.0 | KSS Min [9]: 1 | Difference between average KSS score post and prior to infusion start, LS Mean (SE) (Compound A 112 mg): 1.64 (0.332) | KSS Max [10]: 9 | KSS Mean (SD) [10]: 8.0 (1.57) | KSS Median [10]: 8.5 | KSS Min [10]: 3 | KSS Max [11]: 6 | KSS Mean (SD) [11]: 3.4 (1.76) | KSS Median [11]: 3.0 | KSS Min [11]: 1 | KSS Max [12]: 8 | KSS Mean (SD) [12]: 3.2 (2.02) | KSS Median [12]: 2.0 | KSS Min [12]: 1 | KSS Max [13]: 9 | KSS Mean (SD) [13]: 3.8 (1.82) | KSS Median [13]: 3.0 | KSS Min [13]: 1 | KSS Max [14]: 4 | KSS Mean (SD) [14]: 2.5 (0.92) | KSS Median [14]: 3.0 | KSS Min [14]: 1 | KSS Max [15]: 9 | KSS Mean (SD) [15]: 5.2 (1.72) | KSS Median [15]: 5.0
